Columns and labels:
[1] = test system: BV-2 murine microglial cells; experiment: NO production (Griess assay) in LPS-activated BV-2 cells; format: cell-based; settings: then 100 ng/mL LPS for 24 h
Protocol: To determine the effects of 13 on LPS-induced inflammatory mediators, we initially evaluated the production of NO. BV-2 cells were treated with different concentrations of 13, then, were exposed to 100 ng/mL LPS for 24 h, and the release of NO in the culture medium was measured by Griess assay (Figure 4B).
Cell Cultures and Treatments: BV-2 murine microglial cells (a gift from Prof. Elisabetta Blasi of the University of Modena and Reggio Emilia, Modena, Italy) were maintained at 37 °C and 5% CO2 in a humidified incubator and grown in DMEM supplemented with 10% (v/v) low-endotoxin fetal bovine serum (Euroclone—Milan, Italy), 2 mM L-glutamine, 50 U/mL penicillin, and 50 μg/mL streptomycin (Sigma-Aldrich–Merck, Milan, Italy). […]
Measurement of NO Production: The amount of nitrite accumulation in the culture medium of BV-2 cells was measured using Griess reagent. […] The NO concentration was evaluated by measuring the absorbance at 540 nm with a 96-well microplate spectrophotometer (VICTOR3 V Multilabel Counter; PerkinElmer). Concentration of nitrites released in the medium was determined from the standard curve generated with known concentrations of sodium nitrite. Results are expressed as mean concentration of nitrites (μM) ± SEM, from three different samples.

A2BAR = biological target: T1, A2BAR (Homo sapiens, UniProt P29275); experiment: Functional study at A2BAR (GloSensor cAMP assay; inhibition of NECA-stimulated adenylyl cyclase activity); format: cell-based; settings: Ki calculated from IC50 of inhibition of NECA-stimulated adenylyl cyclase activity, CHO cells
T1 construct: expressed in transfected cells
T1 sequence (P29275 1-332): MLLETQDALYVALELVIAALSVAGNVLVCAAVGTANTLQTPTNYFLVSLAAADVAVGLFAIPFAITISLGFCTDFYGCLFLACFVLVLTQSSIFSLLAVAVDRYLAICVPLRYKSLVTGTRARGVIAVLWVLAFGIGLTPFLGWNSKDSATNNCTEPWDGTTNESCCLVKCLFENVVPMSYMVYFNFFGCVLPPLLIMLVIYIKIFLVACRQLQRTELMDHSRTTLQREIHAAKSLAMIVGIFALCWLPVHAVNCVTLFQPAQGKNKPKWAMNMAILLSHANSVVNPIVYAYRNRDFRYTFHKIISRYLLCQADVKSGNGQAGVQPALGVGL
Protocol: The affinities of the newly synthesized compounds 7–13 and 17–21 were determined in binding studies at human recombinant A1, A2A, and A3 ARs, stably transfected in Chinese hamster ovary (CHO) cells, using [^3H]CCPA (2-chloro-N^6-cyclopentylAdo), [^3H]NECA (5′-N-ethylcarboxamidoAdo), and [^3H]HEMADO (2-hexynyl-N^6-methylAdo) as respective radioligands. Most of the compounds were also evaluated at A2BARs in a functional study using the GloSensor cAMP assay. The results are reported in Table 1 as Ki values in nM (± standard errors). In the case of A2BARs, Ki-values were calculated from IC50-values determined by the inhibition of NECA-stimulated adenylyl cyclase activity.

CCn1c(-c2ccco2)nc2c(N)nc(NCCc3ccc(O)cc3)nc21 [compound 13, 4-(2-((6-Amino-9-ethyl-8-(furan-2-yl)-9H-purin-2-yl)amino)ethyl)phenol]
NO level in culture medium vs LPS treated cells ([1]; 1 nM compound): significantly reduced the NO level | NO level in culture medium vs LPS treated cells ([1]; 10 nM compound): significantly reduced the NO level | Ki (A2BAR): 1.43 µM
